Test results: ChEMBL document CHEMBL2010795, “Anti-inflammatory and anti-arthritic effects of new synthetic 3-(4-hydroxyphenyl)-4-(4-thiomethoxyphenyl)-1H-pyrrole-2,5-dione” (2012)
Each block holds one compound with its values, some of them ahead of it. The source made the active and inactive calls. No cut-off for these calls is given here.

Key:
[1] = system: Rattus norvegicus; test: Antiinflammatory activity in rat assessed as inhibition of carrageenan-induced hind paw edema at 50 mg/kg, po administered 1 hr before carrageenan challenge measured up to 5 hrs by plethysmometer; assay type: functional, organism-based; design: dose 50 mg/kg
[2] = system: Rattus norvegicus; test: Antiarthritic activity in Freund's complete adjuvant-induced Sprague-Dawley rat arthritis model at 50 mg/kg, po administered daily on day 9 to day 19 post challenge; assay type: functional, organism-based; design: dose 50 mg/kg
[3] = system: Rattus norvegicus; test: Antiarthritic activity in Freund's complete adjuvant-induced Sprague-Dawley rat arthritis model assessed as reduction in plasma PGE2 levels at 50 mg/kg, po administered daily on day 9 to day 19 post challenge measured after 19 days by EIA; assay type: functional; design: scale not given: the % may be the effect or the level left
[4] = system: Rattus norvegicus; test: Antiinflammatory activity in rat assessed as inhibition of carrageenan-induced PGE2 production in hind paw at 25 mg/kg, po administered 1 hr before carrageenan challenge measured up to 5 hrs by EIA; assay type: functional, organism-based; design: dose 25 mg/kg
[5] = system: RAW264.7; test: Inhibition of LPS-induced IL-1 beta production in mouse RAW264.7 cells at 10 to 40 uM treated 1 hr before LPS challenge measured after 24 hrs by EIA; assay type: functional, cell-based
[6] = system: Rattus norvegicus; test: Antiinflammatory activity in rat assessed as inhibition of carrageenan-induced myeloperoxidase activity in hind paw at 25 mg/kg, po administered 1 hr before carrageenan challenge measured up to 5 hrs by EIA; assay type: functional, organism-based; design: dose 25 mg/kg
[7] = system: Rattus norvegicus; test: Antiarthritic activity in Freund's complete adjuvant-induced Sprague-Dawley rat arthritis model assessed as reduction in IL-1beta mRNA expression at 50 mg/kg, po administered daily on day 9 to day 19 post challenge measured on day 20 by RT-PCR analysis; assay type: functional, organism-based; design: dose 50 mg/kg
[8] = molecular target: T1, Prostaglandin G/H synthase 2 (Homo sapiens) (UniProt P35354); test: Inhibition of human recombinant COX2 assessed as PGF2alpha production preincubated for 10 mins before substrate addition by EIA
T1 sequence (whole entry): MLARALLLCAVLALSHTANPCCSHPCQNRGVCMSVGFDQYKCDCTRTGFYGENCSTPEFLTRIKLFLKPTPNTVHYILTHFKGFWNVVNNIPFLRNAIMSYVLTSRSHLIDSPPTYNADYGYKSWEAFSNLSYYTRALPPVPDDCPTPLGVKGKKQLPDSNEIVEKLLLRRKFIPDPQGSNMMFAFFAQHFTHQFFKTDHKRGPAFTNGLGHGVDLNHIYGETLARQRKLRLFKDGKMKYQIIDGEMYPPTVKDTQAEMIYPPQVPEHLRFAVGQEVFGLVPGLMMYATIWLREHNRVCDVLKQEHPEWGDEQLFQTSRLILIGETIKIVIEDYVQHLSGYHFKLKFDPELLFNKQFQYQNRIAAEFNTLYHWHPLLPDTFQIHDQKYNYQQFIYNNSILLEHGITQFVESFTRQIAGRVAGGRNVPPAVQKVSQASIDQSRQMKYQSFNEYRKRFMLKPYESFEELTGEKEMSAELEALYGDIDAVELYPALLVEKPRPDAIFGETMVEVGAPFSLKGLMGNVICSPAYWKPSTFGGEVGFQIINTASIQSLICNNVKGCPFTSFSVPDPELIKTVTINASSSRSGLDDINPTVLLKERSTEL

[9] = system: Rattus norvegicus; test: Antiarthritic activity in Freund's complete adjuvant-induced Sprague-Dawley rat arthritis model assessed as inhibition of erythema at 25 to 50 mg/kg, po administered daily on day 9 to day 19 post challenge; assay type: functional, organism-based
[10] = system: RAW264.7; test: Inhibition of LPS-induced IL-6 mRNA expression in mouse RAW264.7 cells at 10 to 40 uM treated 1 hr before LPS challenge measured after 24 hrs by RT-PCR analysis; assay type: functional, cell-based
[11] = system: Rattus norvegicus; test: Antiarthritic activity in Freund's complete adjuvant-induced Sprague-Dawley rat arthritis model at 25 mg/kg, po administered daily on day 9 to day 19 post challenge; assay type: functional, organism-based; design: dose 25 mg/kg
[12] = system: RAW264.7; test: Inhibition of LPS-induced IL-6 production in mouse RAW264.7 cells at 10 to 40 uM treated 1 hr before LPS challenge measured after 24 hrs by EIA; assay type: functional, cell-based
[13] = system: Rattus norvegicus; test: Antiarthritic activity in Freund's complete adjuvant-induced Sprague-Dawley rat arthritis model assessed as inhibition of ankle swelling at 25 to 50 mg/kg, po administered daily on day 9 to day 19 post challenge; assay type: functional, organism-based
[14] = system: RAW264.7; test: Inhibition of LPS-induced nitric oxide production in mouse RAW264.7 cells at 10 to 40 uM treated 1 hr before LPS challenge measured after 24 hrs by Griess method; assay type: functional, cell-based
[15] = system: Rattus norvegicus; test: Antiarthritic activity in Freund's complete adjuvant-induced Sprague-Dawley rat arthritis model assessed as reduction in paw volume at 50 mg/kg, po administered daily on day 9 to day 19 post challenge; assay type: functional; design: scale not given: the % may be the effect or the level left
[16] = system: RAW264.7; test: Inhibition of LPS-induced IL-1 beta mRNA expression in mouse RAW264.7 cells at 10 to 40 uM treated 1 hr before LPS challenge measured after 24 hrs by RT-PCR analysis; assay type: functional, cell-based
[17] = molecular target: T2, Prostaglandin G/H synthase 1 (Ovis aries) (UniProt P05979); test: Inhibition of ovine recombinant COX1 assessed as PGF2alpha production at 0.1 to 40 uM preincubated for 10 mins before substrate addition by EIA
T2 sequence (whole entry): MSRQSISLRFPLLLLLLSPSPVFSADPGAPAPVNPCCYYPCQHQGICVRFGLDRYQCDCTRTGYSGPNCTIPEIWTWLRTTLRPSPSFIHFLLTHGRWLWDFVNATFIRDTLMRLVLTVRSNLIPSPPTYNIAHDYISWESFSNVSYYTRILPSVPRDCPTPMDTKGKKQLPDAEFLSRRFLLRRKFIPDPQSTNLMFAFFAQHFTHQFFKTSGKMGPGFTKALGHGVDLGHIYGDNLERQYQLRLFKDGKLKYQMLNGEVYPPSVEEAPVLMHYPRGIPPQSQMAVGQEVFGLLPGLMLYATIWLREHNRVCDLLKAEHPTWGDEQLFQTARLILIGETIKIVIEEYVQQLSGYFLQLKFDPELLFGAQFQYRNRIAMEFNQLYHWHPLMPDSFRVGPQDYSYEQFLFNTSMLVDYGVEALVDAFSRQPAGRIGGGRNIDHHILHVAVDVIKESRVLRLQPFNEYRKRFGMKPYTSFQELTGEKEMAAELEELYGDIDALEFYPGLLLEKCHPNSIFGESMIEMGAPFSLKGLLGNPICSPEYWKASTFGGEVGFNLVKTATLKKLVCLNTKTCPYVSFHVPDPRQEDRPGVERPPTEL

[18] = system: RAW264.7; test: Inhibition of iNOS protein expression in mouse RAW264.7 cells assessed as reduction in NO production by Western blot analysis; assay type: functional, cell-based
[19] = system: RAW264.7; test: Effect on COX-2 protein expression in LPS-stimulated mouse RAW264.7 cells at 10 to 40 uM preincubated for 1 hr prior LPS challenge measured after 24 hrs by Western blot analysis; assay type: functional, cell-based
[20] = system: Rattus norvegicus; test: Antiarthritic activity in Freund's complete adjuvant-induced Sprague-Dawley rat arthritis model assessed as inhibition of edema at 25 to 50 mg/kg, po administered daily on day 9 to day 19 post challenge; assay type: functional, organism-based
[21] = system: Rattus norvegicus; test: Antiarthritic activity in Freund's complete adjuvant-induced Sprague-Dawley rat arthritis model assessed as reduction in IL-6 mRNA expression at 50 mg/kg, po administered daily on day 9 to day 19 post challenge measured on day 20 by RT-PCR analysis; assay type: functional, organism-based; design: dose 50 mg/kg
[22] = system: Rattus norvegicus; test: Antiarthritic activity in Freund's complete adjuvant-induced Sprague-Dawley rat arthritis model assessed as inhibition of joint dysfunction at 25 to 50 mg/kg, po administered daily on day 9 to day 19 post challenge; assay type: functional, organism-based
[23] = system: RAW264.7; test: Effect on COX-1 mRNA expression in LPS-stimulated mouse RAW264.7 cells; assay type: functional, cell-based
[24] = system: RAW264.7; test: Inhibition of LPS-induced PGE2 production in mouse RAW264.7 cells treated 1 hr before LPS challenge measured after 24 hrs by EIA; assay type: functional, cell-based
[25] = system: RAW264.7; test: Effect on COX-2 mRNA expression in LPS-stimulated mouse RAW264.7 cells at 10 to 40 uM preincubated for 1 hr prior LPS challenge measured after 4 hrs by RT-PCR analysis; assay type: functional, cell-based
[26] = system: Rattus norvegicus; test: Antiinflammatory activity in rat assessed as inhibition of carrageenan-induced hind paw edema at 25 mg/kg, po administered 1 hr before carrageenan challenge measured up to 5 hrs by plethysmometer; assay type: functional, organism-based; design: dose 25 mg/kg
[27] = system: RAW264.7; test: Effect on COX-1 protein expression in LPS-stimulated mouse RAW264.7 cells; assay type: functional, cell-based
[28] = system: RAW264.7; test: Inhibition of LPS-induced iNOS mRNA expression in mouse RAW264.7 cells assessed as reduction in NO production at 10 to 40 uM treated 1 hr before LPS challenge measured after 4 hrs by RT-PCR analysis; assay type: functional, cell-based

SMILES: CC(C)Cc1ccc(C(C)C(=O)O)cc1 (stereo not given)
inhibition [1]: Active
Activity [2]: Active

inhibition [8]: Dose-dependent effect
inhibition [17]: inactive
SMILES: CSc1ccc(C2=C(c3ccc(O)cc3)C(=O)NC2=O)cc1
Activity [3]: 42%
inhibition [4]: Active
inhibition [5]: Active
inhibition [6]: Active
Activity [7]: Active
inhibition [9]: Active
inhibition [10]: Active
Activity [11]: Active
inhibition [12]: Active
inhibition [13]: Active
inhibition [14]: Active
inhibition [1]: Active
Activity [15]: 53%
inhibition [16]: Active
inhibition [18]: Active
inhibition [19]: inactive
inhibition [20]: Active
Activity [2]: Active
Activity [21]: Active
inhibition [22]: Active
inhibition [23]: inactive
inhibition [24]: Dose-dependent effect
inhibition [25]: inactive
inhibition [26]: Active
inhibition [27]: inactive
inhibition [28]: Active
